# From ChEMBL document CHEMBL1151324, “Cytotoxic geranyl stilbenes from Macaranga schweinfurthii” (J Nat Prod, 1998)
# What was measured:
# PC-3 = assay: Cytotoxicity against human PC3 cells; type: functional; details: for CC50: read-out: pLC50 (the source's name) (converted); for TGI: read-out: pTGI (converted)
# K562 = assay: Cytotoxicity against human K562 cells; type: functional; details: for TGI: read-out: pTGI (converted)
# OVCAR-3 = assay: Cytotoxicity against human OVCAR-3 cells; type: functional; details: for TGI: read-out: pTGI (converted)
# A549 [1] = assay: Cytotoxicity against human A549 cells; type: functional; details: for TGI: read-out: pTGI (converted)
# NCI-H322M = assay: Cytotoxicity against human NCI-H322M cells; type: functional; details: for TGI: read-out: pTGI (converted)
# NCI-H460 = assay: Cytotoxicity against human NCI-H460 cells; type: functional; details: for TGI: read-out: pTGI (converted)
# UO-31 = assay: Cytotoxicity against human UO31 cells; type: functional; details: for TGI: read-out: pTGI (converted)
# HCT-116 = assay: Cytotoxicity against human HCT116 cells; type: functional; details: for TGI: read-out: pTGI (converted)
# SF-539 = assay: Cytotoxicity against human SF539 cells; type: functional; details: for TGI: read-out: pTGI (converted)
# SNB-19 = assay: Cytotoxicity against human SNB19 cells; type: functional; details: for TGI: read-out: pTGI (converted)
# COLO 205 = assay: Cytotoxicity against human COLO205 cells; type: functional; details: for TGI: read-out: pTGI (converted)
# UACC-257 = assay: Cytotoxicity against human UACC257 cells; type: functional; details: for TGI: read-out: pTGI (converted)
# IGROV-1 = assay: Cytotoxicity against human IGROV1 cells; type: functional; details: for TGI: read-out: pTGI (converted)
# A549 [2] = assay: Cytotoxicity against human A549 cells after 1 hr; type: functional, cell-based; details: A549, 1 h
# CAKI-1 = assay: Cytotoxicity against human Caki1 cells; type: functional; details: for TGI: read-out: pTGI (converted)
# BT-549 = assay: Cytotoxicity against human BT549 cells; type: functional; details: for CC50: read-out: pLC50 (the source's name) (converted); for TGI: read-out: pTGI (converted)
# T47D = assay: Cytotoxicity against human T47D cells; type: functional; details: for CC50: read-out: pLC50 (the source's name) (converted); for TGI: read-out: pTGI (converted)
# HL-60 = assay: Cytotoxicity against human HL60 cells; type: functional; details: for TGI: read-out: pTGI (converted)
# SK-OV-3 = assay: Cytotoxicity against human SKOV3 cells; type: functional; details: for TGI: read-out: pTGI (converted)
compound,measurement,setting,value
CC(C)=CCC/C(C)=C/Cc1c(O)cc(/C=C/c2cc(O)c3c(c2)C[C@@H]2C(C)(C)[C@H](O)[C@H](O)C[C@@]2(C)O3)cc1O [SCHWEINFURTHIN A],GI50,PC-3,0.17 µM
same,CC50,PC-3,36.3 µM
same,TGI,PC-3,12.9 µM
same,GI50,K562,0.0646 µM
same,LC50,K562,72.4 µM
same,TGI,K562,14.1 µM
same,GI50,OVCAR-3,3.09 µM
same,LC50,OVCAR-3,21.9 µM
same,TGI,OVCAR-3,7.94 µM
same,GI50,A549 [1],0.141 µM
same,LC50 (concentration killing 50% of cells),A549 [1],40.7 µM
same,TGI,A549 [1],14.1 µM
same,GI50,NCI-H322M,6.17 µM
same,LC50,NCI-H322M,47.9 µM
same,TGI,NCI-H322M,20.9 µM
same,GI50,NCI-H460,0.0129 µM
same,LC50,NCI-H460,38.9 µM
same,TGI,NCI-H460,12 µM
same,GI50,UO-31,0.01 µM
same,LC50,UO-31,3.63 µM
same,TGI,UO-31,0.209 µM
same,GI50,HCT-116,0.0525 µM
same,LC50,HCT-116,40.7 µM
same,TGI,HCT-116,14.1 µM
same,GI50,SF-539,0.01 µM
same,LC50,SF-539,8.13 µM
same,TGI,SF-539,1.7 µM
same,GI50,SNB-19,0.257 µM
same,LC50,SNB-19,49 µM
same,TGI,SNB-19,20 µM
same,GI50,COLO 205,1.1 µM
same,LC50,COLO 205,7.08 µM
same,TGI,COLO 205,2.82 µM
same,GI50,UACC-257,4.27 µM
same,LC50,UACC-257,43.7 µM
same,TGI,UACC-257,18.2 µM
same,GI50,IGROV-1,1.29 µM
same,LC50,IGROV-1,34.7 µM
same,TGI,IGROV-1,11 µM
same,IC50,A549 [2],43 mg/L
same,GI50,CAKI-1,0.129 µM
same,LC50,CAKI-1,56.2 µM
same,TGI,CAKI-1,19.1 µM
same,GI50,BT-549,12.9 µM
same,CC50,BT-549,74.1 µM
same,TGI,BT-549,32.4 µM
same,GI50,T47D,3.24 µM
same,CC50,T47D,97.7 µM
same,TGI,T47D,21.9 µM
same,GI50,HL-60,0.0158 µM
same,LC50,HL-60,38.9 µM
same,TGI,HL-60,0.129 µM
same,GI50,SK-OV-3,2.69 µM
same,LC50,SK-OV-3,39.8 µM
same,TGI,SK-OV-3,15.8 µM
COc1cc(/C=C/c2cc(O)c(C/C=C(\C)CCC=C(C)C)c(O)c2)cc2c1O[C@]1(C)C[C@@H](O)[C@@H](O)C(C)(C)[C@H]1C2 [SCHWEINFURTHIN B],GI50,PC-3,0.251 µM
same,CC50,PC-3,42.7 µM
same,TGI,PC-3,12.9 µM
same,GI50,K562,0.347 µM
same,LC50,K562,36.3 µM
same,TGI,K562,6.17 µM
same,GI50,OVCAR-3,3.89 µM
same,LC50,OVCAR-3,42.7 µM
same,TGI,OVCAR-3,12.9 µM
same,GI50,A549 [1],0.339 µM
same,LC50 (concentration killing 50% of cells),A549 [1],38.9 µM
same,TGI,A549 [1],14.1 µM
same,GI50,NCI-H322M,3.39 µM
same,LC50,NCI-H322M,42.7 µM
same,TGI,NCI-H322M,17 µM
same,GI50,NCI-H460,0.269 µM
same,LC50,NCI-H460,57.5 µM
same,TGI,NCI-H460,12.9 µM
same,GI50,UO-31,0.0759 µM
same,LC50,UO-31,5.25 µM
same,TGI,UO-31,0.912 µM
same,GI50,HCT-116,0.575 µM
same,LC50,HCT-116,22.9 µM
same,TGI,HCT-116,6.61 µM
same,GI50,SF-539,0.151 µM
same,LC50,SF-539,14.1 µM
same,TGI,SF-539,2 µM
same,GI50,SNB-19,0.398 µM
same,LC50,SNB-19,40.7 µM
same,TGI,SNB-19,15.8 µM
same,GI50,COLO 205,0.617 µM
same,LC50,COLO 205,6.76 µM
same,TGI,COLO 205,2.4 µM
same,GI50,UACC-257,5.75 µM
same,LC50,UACC-257,46.8 µM
same,TGI,UACC-257,20.9 µM
same,GI50,IGROV-1,2.4 µM
same,LC50,IGROV-1,42.7 µM
same,TGI,IGROV-1,18.2 µM
same,IC50,A549 [2],> 100 mg/L
same,GI50,CAKI-1,1.91 µM
same,LC50,CAKI-1,75.9 µM
same,TGI,CAKI-1,28.8 µM
same,GI50,BT-549,11 µM
same,CC50,BT-549,83.2 µM
same,TGI,BT-549,39.8 µM
same,GI50,T47D,11 µM
same,CC50,T47D,> 100 µM
same,TGI,T47D,69.2 µM
same,GI50,HL-60,0.0372 µM
same,LC50,HL-60,> 100 µM
same,TGI,HL-60,1.29 µM
same,GI50,SK-OV-3,2.57 µM
same,LC50,SK-OV-3,40.7 µM
same,TGI,SK-OV-3,15.8 µM
